In the supplement of paper PMC13380429:

Columns and labels:
Settings in all cases: 72 h
[1] = tested on: HepG2; assay: relative viability EC50 (midpoint between 100% and the lowest measured viability); higher = less toxic
[2] = tested on: U2OS; assay: as above
[3] = tested on: Calu-3; assay: as above
[4] = tested on: Vero E6; assay: as above
[5] = tested on: Caco-2; assay: as above
[6] = tested on: HepG2; assay: drug sensitivity score (DSS) for viability; higher = more toxic; extreme values may be limits of the assay
[7] = tested on: U2OS; assay: as above
[8] = tested on: Calu-3; assay: as above
[9] = tested on: Vero E6; assay: as above
[10] = tested on: Caco-2; assay: as above
[11] = tested on: HepG2; assay: cell viability relative to DMSO; higher = less toxic
[12] = tested on: U2OS; assay: as above
[13] = tested on: Calu-3; assay: as above
[14] = tested on: Vero E6; assay: as above
[15] = tested on: Caco-2; assay: as above

Structure (SMILES)	relative viability EC50 [1]	relative viability EC50 [2]	relative viability EC50 [3]	relative viability EC50 [4]	relative viability EC50 [5]	drug sensitivity score [6]	drug sensitivity score [7]	drug sensitivity score [8]	drug sensitivity score [9]	drug sensitivity score [10]	cell viability ([11]; 1 nM)	cell viability ([11]; 10 nM)	cell viability ([11]; 100 nM)	cell viability ([11]; 1000 nM)	cell viability ([11]; 10000 nM)	cell viability ([12]; 1 nM)	cell viability ([12]; 10 nM)	cell viability ([12]; 100 nM)	cell viability ([12]; 1000 nM)	cell viability ([12]; 10000 nM)	cell viability ([13]; 1 nM)	cell viability ([13]; 10 nM)	cell viability ([13]; 100 nM)	cell viability ([13]; 1000 nM)	cell viability ([13]; 10000 nM)	cell viability ([14]; 1 nM)	cell viability ([14]; 10 nM)	cell viability ([14]; 100 nM)	cell viability ([14]; 1000 nM)	cell viability ([14]; 10000 nM)	cell viability ([15]; 1 nM)	cell viability ([15]; 10 nM)	cell viability ([15]; 100 nM)	cell viability ([15]; 1000 nM)	cell viability ([15]; 10000 nM)
CN(Cc1ccccc1)C(=O)[C@H](Cc1ccc2ccccc2c1)NC(=O)[C@@H]1CCCN1C(=O)Nc1ccccc1[N+](=O)[O-] [SDZ-NKT-343]	> 10 µM	> 10 µM	> 10 µM	> 10 µM	> 10 µM	0	0	0	0	1.7	102%	93.9%	103%	93.6%	92.2%	105%	103%	101%	106%	87.3%	95%	93.7%	98.9%	97.3%	90.7%	102%	98.7%	106%	97.7%	99.2%	96.3%	97.3%	96.1%	89%	75.1%
O=C(Oc1cc(S(=O)(=O)c2ccccc2)ccc1[N+](=O)[O-])c1ccc(Cl)cc1	> 10 µM	> 10 µM	> 10 µM	> 10 µM	> 10 µM	0	0	0	0	0	100%	97.2%	98.4%	97.2%	102%	96.5%	94.9%	97.4%	94.6%	96.9%	101%	97.2%	92.5%	94.8%	106%	97.5%	104%	94.7%	101%	106%	103%	93.4%	92.3%	87.5%	103%
BrC1C(Br)C(Br)C(Br)C(Br)C1Br (stereo not given) [1,2,3,4,5,6-hexabromocyclohexane]	> 10 µM	> 10 µM	> 10 µM	> 10 µM	> 10 µM	0	0	0	0	0	95.8%	106%	89.1%	99.8%	90.2%	99.1%	96.4%	101%	95.1%	101%	106%	104%	104%	87.3%	105%	99.7%	107%	101%	105%	93.9%	96.4%	93.6%	97.3%	102%	98.4%
Cc1n[nH]c2ccc(-c3cncc(OC[C@@H](N)Cc4ccccc4)c3)cc12	1.04 µM	2.18 µM	3.43 µM	1.3 µM	2.28 µM	11.3	7.3	2.9	9.7	5.3	103%	95.8%	106%	53%	1.7%	99.6%	99.8%	97.7%	88.3%	2.8%	105%	102%	93.4%	103%	41.3%	101%	106%	96.3%	66%	5%	96.7%	102%	97.8%	92.2%	27.3%
O=C(OCC(O)CO)c1ccccc1Nc1ccnc2c(C(F)(F)F)cccc12 (stereo not given) [floctafenine]	> 10 µM	> 10 µM	> 10 µM	> 10 µM	> 10 µM	0	0	0.7	0	0	101%	106%	107%	105%	92.2%	101%	99.4%	100%	98.5%	93.4%	108%	98.5%	95.9%	98.7%	81.1%	98.3%	107%	95.4%	101%	104%	92.2%	90.2%	95.9%	92.5%	96.9%
Cc1cc(-c2nc(C(=O)Nc3cn(C4CCOCC4)nc3C(N)=O)co2)ccn1	> 10 µM	> 10 µM	> 10 µM	> 10 µM	> 10 µM	2.9	0	0	0	0	99.9%	113%	88.6%	82.9%	96.3%	99%	94.7%	99.8%	100%	99.3%	109%	97%	85.7%	95%	93.2%	93.5%	103%	101%	93%	92.1%	97.5%	94.4%	101%	98.2%	93.3%
NC/C(=C/F)CCc1ccc(F)cc1 [mofegiline]	> 10 µM	> 10 µM	> 10 µM	> 10 µM	> 10 µM	0	0	0	0	0	98%	91.5%	87.9%	90%	97.4%	98.6%	99.3%	95.7%	96.2%	96.3%	102%	97.7%	102%	104%	88.4%	92.5%	102%	90.5%	91.7%	95%	89.5%	96.7%	85.8%	90.4%	92.4%
CC(=O)Nc1cccc(-n2c(=O)n(C3CC3)c(=O)c3c(Nc4ccc(I)cc4F)n(C)c(=O)c(C)c32)c1 [trametinib]	0.0064 µM	0.695 µM	0.0536 µM	0.129 µM	0.0156 µM	30.5	9	19	19.2	26.5	99.3%	45.5%	30.5%	25.3%	23.2%	99.3%	91.9%	89.7%	60.8%	29.3%	94.8%	73.6%	62%	33.8%	24.8%	101%	94.2%	67.9%	15.7%	15.8%	80.4%	65.4%	40.6%	21.3%	16%
CCCCCCCNS(=O)(=O)c1cccc2c(Cl)cccc12 [SC-10]	> 10 µM	> 10 µM	> 10 µM	> 10 µM	> 10 µM	0	0	0	0	0	98.3%	94.8%	108%	97.5%	96.3%	97.7%	98.1%	93.5%	103%	96.2%	99.7%	106%	93.8%	105%	105%	117%	95.8%	102%	100%	95.3%	112%	99.9%	84.6%	123%	90.7%
O=C(Nc1cc(C(F)(F)F)cc(C(F)(F)F)c1)Nc1c(Br)cc(Br)cc1-c1nnn[nH]1 [NS-5806]	> 10 µM	> 10 µM	> 10 µM	> 10 µM	> 10 µM	0	0	0	0	0	107%	95.3%	106%	96.6%	108%	98.6%	103%	94.6%	105%	98.9%	94.2%	95.4%	95.3%	98.2%	87.9%	98.8%	99.2%	105%	102%	102%	93.7%	97.8%	97.1%	98.2%	91.7%
Nc1ccc(O)c(C(=O)O)c1 [mesalazine]	> 10 µM	> 10 µM	> 10 µM	> 10 µM	> 10 µM	0	0	0	0	0	112%	100%	103%	104%	97.3%	103%	101%	103%	96.8%	104%	109%	100%	107%	96.5%	102%	105%	104%	103%	102%	92.2%	112%	98.6%	109%	97.7%	100%
COc1cn(-c2ccc(-n3cccn3)cc2F)nc(-c2ccnn2-c2ccccc2)c1=O [TAK-063]	> 10 µM	> 10 µM	> 10 µM	> 10 µM	> 10 µM	0	0	0	0	0	99.7%	95.5%	102%	105%	106%	97.3%	99.6%	97.1%	101%	102%	92.1%	95.4%	98.8%	102%	109%	91.7%	97.3%	103%	90%	104%	88.1%	95.7%	91.1%	97.4%	105%
COC(=O)[C@@H]1C[C@H](OC(C)=O)C(=O)[C@H]2[C@@]1(C)CC[C@H]1C(=O)O[C@H](c3ccoc3)C[C@]21C [salvinorin-A]	> 10 µM	> 10 µM	> 10 µM	> 10 µM	> 10 µM	0	0	0	0	0	88.2%	106%	105%	98.2%	101%	97.9%	101%	93.1%	97%	97.3%	110%	91.3%	97.5%	107%	109%	98.5%	108%	106%	91.8%	98.4%	112%	112%	101%	101%	97.2%
CCCCc1cc2ccccc2c(OCCN(C)C)n1 [dimethisoquin]	> 10 µM	> 10 µM	> 10 µM	> 10 µM	> 10 µM	0	0	0	0	0	103%	104%	109%	91.2%	102%	98.9%	106%	102%	105%	91.3%	104%	97.7%	92.3%	95.6%	98.3%	106%	97.5%	97.3%	96.1%	94.3%	107%	102%	91.5%	105%	97.6%
